Data published in paper PMC9434261, “Plant peptidoglycan precursor biosynthesis: Conservation between moss chloroplasts and Gram-negative bacteria” (Plant Physiology, 2022).
Square brackets hold non-standard residues; d marks the D form. Peptide text beside a SMILES is read from it.

Tests used:
PaMurF = target: T1, PaMurF (Pseudomonas aeruginosa, UniProt Q9EY48); test: coupled ADP-release assay, tripeptide made in situ by MurE; assay type: biochemical; conditions: with UDP-MurNAc-D,L-DAP tripeptide (made in situ by MurE) and ATP
T1 construct: gene murF; recombinant, overexpressed and purified as in Majce et al. 2013
T1 sequence (Q9EY48 1-458): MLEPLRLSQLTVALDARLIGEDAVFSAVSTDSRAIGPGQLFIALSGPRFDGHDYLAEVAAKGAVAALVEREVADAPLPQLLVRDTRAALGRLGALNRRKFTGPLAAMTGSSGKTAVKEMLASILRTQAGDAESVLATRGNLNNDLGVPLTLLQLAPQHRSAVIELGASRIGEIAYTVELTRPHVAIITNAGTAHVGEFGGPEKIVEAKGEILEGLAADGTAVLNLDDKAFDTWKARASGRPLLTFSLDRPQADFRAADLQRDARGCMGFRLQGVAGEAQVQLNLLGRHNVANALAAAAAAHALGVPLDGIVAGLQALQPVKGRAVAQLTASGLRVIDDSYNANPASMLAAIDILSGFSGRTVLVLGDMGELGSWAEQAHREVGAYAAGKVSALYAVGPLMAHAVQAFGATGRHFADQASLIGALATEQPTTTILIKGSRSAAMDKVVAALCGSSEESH

[1] = target: T2, Streptococcus pneumoniae Pn16 MurE (Streptococcus pneumoniae, UniProt Q8CWQ5); test: coupled pyruvate kinase/lactate dehydrogenase ADP-release assay, A340; assay type: biochemical; conditions: 150 µM L-Lys, 375 µM UDP-MurNAc-dipeptide, ATP; 37 °C
T2 construct: recombinant, overexpressed and purified as in Blewett et al. 2004
T2 sequence (Q8CWQ5 1-481): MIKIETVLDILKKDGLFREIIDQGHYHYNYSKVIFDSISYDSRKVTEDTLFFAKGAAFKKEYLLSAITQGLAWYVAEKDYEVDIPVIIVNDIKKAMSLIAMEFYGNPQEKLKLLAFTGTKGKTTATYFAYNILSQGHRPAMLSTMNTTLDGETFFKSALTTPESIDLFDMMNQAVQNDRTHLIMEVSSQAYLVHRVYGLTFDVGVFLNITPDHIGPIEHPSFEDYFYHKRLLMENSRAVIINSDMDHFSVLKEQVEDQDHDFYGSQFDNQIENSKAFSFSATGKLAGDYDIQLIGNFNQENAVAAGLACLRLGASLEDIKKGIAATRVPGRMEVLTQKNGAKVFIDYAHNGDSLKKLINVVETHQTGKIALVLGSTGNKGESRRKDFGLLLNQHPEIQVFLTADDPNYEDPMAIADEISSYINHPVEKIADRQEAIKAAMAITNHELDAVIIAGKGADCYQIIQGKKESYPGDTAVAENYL

SMILES | coupled ADP-release assay, tripeptide made in situ by MurE (PaMurF) | coupled pyruvate kinase/lactate dehydrogenase ADP-release assay, A340 [1]
C[C@@H](N)C(=O)N[C@H](C)C(=O)O [D-Ala–D-Ala] (H-[dA]-[dA]-OH) | MurF ligase with D-Ala–D-Ala as the second substrate | 
CC(=O)N[C@H]1[C@@H](OP(=O)(O)OP(=O)(O)OC[C@H]2O[C@@H](n3ccc(=O)[nH]c3=O)[C@H](O)[C@@H]2O)O[C@H](CO)[C@@H](O)[C@@H]1O[C@H](C)C(=O)N[C@@H](C)C(=O)N[C@H](CCC(=O)O)C(=O)O [UDP-MurNAc-Ala-Glu, Uridine diphospho N-acetylmuramyl-L-alanyl-D-glutamate] |  | lysylation of UDP-MurNAc-Ala-Glu was also assayed with the L-Lys-specific Streptococcus pneumoniae Pn16 MurE
